Here are results for 20 compounds from ChEMBL document CHEMBL1136672, “Synthesis and pharmacological activity of fluorescent histamine H1 receptor antagonists related to mepyramine” (Bioorg Med Chem Lett, 2003).

The target in test [1] is Histamine H1 receptor (Homo sapiens) (UniProt P35367). Particulars: U-373MG ATCC.
Description: Histamine H1 receptor antagonistic activity in U373MG human glioblastoma cells using fluorescence-labeled H1 as radioligand in Ca+2 assay
A further test addresses Histamine H1 receptor (Cavia porcellus, UniProt P31389). Description: Histamine H1 receptor antagonistic activity in guinea pig ileum […]. It is filed as functional, tissue-based. Particulars: read-out: pA2 (converted).

Histamine H1 receptor, sequence (P31389 whole entry): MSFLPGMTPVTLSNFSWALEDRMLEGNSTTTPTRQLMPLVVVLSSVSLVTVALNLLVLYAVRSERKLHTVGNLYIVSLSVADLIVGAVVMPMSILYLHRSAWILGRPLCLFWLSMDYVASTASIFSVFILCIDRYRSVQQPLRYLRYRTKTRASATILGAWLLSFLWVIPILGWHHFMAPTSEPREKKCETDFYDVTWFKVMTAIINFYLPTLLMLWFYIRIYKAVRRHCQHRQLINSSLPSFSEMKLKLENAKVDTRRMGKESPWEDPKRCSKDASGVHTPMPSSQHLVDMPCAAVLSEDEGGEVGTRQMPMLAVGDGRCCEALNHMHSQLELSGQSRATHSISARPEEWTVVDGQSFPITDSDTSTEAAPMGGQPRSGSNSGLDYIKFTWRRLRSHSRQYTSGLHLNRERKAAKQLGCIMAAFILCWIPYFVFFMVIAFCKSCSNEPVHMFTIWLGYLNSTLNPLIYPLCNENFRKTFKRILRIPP
Histamine H1 receptor (Homo sapiens), sequence (P35367 whole entry): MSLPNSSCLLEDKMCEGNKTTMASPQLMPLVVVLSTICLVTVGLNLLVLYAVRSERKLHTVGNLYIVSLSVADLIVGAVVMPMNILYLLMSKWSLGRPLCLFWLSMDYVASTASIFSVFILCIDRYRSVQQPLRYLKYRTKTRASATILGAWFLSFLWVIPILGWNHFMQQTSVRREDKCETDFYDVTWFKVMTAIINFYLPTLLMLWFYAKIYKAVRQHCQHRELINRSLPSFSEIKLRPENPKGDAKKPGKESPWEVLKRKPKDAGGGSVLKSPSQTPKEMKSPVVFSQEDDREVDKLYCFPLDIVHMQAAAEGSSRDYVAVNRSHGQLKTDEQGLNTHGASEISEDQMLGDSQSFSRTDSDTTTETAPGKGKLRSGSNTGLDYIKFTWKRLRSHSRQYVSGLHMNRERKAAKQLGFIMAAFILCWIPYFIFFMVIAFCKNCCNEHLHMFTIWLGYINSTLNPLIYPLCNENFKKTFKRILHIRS

As to `COc1ccc(CN(CCN(C)CCCCCCNC(=O)c2ccc(-c3c4ccc(=[N+](C)C)cc-4oc4cc(N(C)C)ccc34)c(C(=O)[O-])c2)c2ccccn2)cc1`, the pKB in test [1] was 7.54. Besides, the Kb at Histamine H1 receptor is 33.1 nM. Turning to `COc1ccc(CN(CCN(C)CCCCN)c2ccccn2)cc1`, the pKB in test [1] is 7.61. Moreover, the Kb at Histamine H1 receptor is 22.4 nM. In the same order, the values of `COc1ccc(CN(CCN(C)CCN)c2ccccn2)cc1` are 7.84 and 13.2 nM.

As for `COc1ccc(CN(CCN(C)CCNC(=O)c2ccc(C(=O)O)c(-c3c4ccc(=O)cc-4oc4cc(O)ccc34)c2)c2ccccn2)cc1`, the pKB in test [1] was 6.93. Besides, at Histamine H1 receptor, the Kb is 145 nM. In the same order, the values of `COc1ccc(CN(CCN(C)CCCCCCNC(=O)c2ccc(-c3c4ccc(=N)cc-4oc4cc(N)ccc34)c(C(=O)O)c2)c2ccccn2)cc1` are 7.68 and 26.3 nM. In the same order, the values of `COc1ccc(CN(CCN(C)CCCCNC(=O)c2ccc(C(=O)O)c(-c3c4ccc(=O)cc-4oc4cc(O)ccc34)c2)c2ccccn2)cc1` are 7.81 and 31.6 nM. In the same order, the values of `COc1ccc(CN(CCN(C)CCCCCCNS(=O)(=O)c2cccc3c(N(C)C)cccc23)c2ccccn2)cc1` are 7.76 and 17.8 nM. On to `COc1ccc(CN(CCN(C)CCNC(=O)c2ccc(-c3c4ccc(=O)cc-4oc4cc(O)ccc34)c(C(=O)O)c2)c2ccccn2)cc1`, for which the pKB in test [1] stood at 7.21. The Kb at Histamine H1 receptor is 69.2 nM.

With `COc1ccc(CN(CCN(C)CCNc2ccc([N+](=O)[O-])c3nonc23)c2ccccn2)cc1`, the pKB in test [1] was determined as 8.12. On to `COc1ccc(CN(CCN(C)CCCCCCCCNC(=O)c2ccc(-c3c4ccc(=O)cc-4oc4cc(O)ccc34)c(C(=O)O)c2)c2ccccn2)cc1`, for which the negative logarithm of the KB (pKB) in test [1] came out at 8.94. The Kb on Histamine H1 receptor was 3.39 nM. `COc1ccc(CN(CCN(C)CCCCCCN)c2ccccn2)cc1` gave a negative logarithm of the KB (pKB) in test [1] of 8.03. For the same compound, the Kb on Histamine H1 receptor was 12.9 nM. For the compound `COc1ccc(CN(CCN(C)CCNc2ccc([N+](=O)[O-])c3n[o+][n-]c23)c2ccccn2)cc1`, the Kb on Histamine H1 receptor was 4.68 nM.

Regarding `COc1ccc(CN(CCN(C)CCCCCCCCNC(=O)c2ccc(C(=O)O)c(-c3c4ccc(=O)cc-4oc4cc(O)ccc34)c2)c2ccccn2)cc1`, the negative-log KB (pKB) in test [1] is 8.53. Further, the Kb at Histamine H1 receptor was 5.01 nM. In the same order, the values of `COc1ccc(CN(CCN(C)CCCCCCNC(=O)c2ccc(-c3c4ccc5cc(O)ccc5c4oc4c3ccc3cc(=O)ccc34)c(C(=O)O)c2)c2ccccn2)cc1` are 7.18 and 36.3 nM. In the same order, the values of `COc1ccc(CN(CCN(C)CCCCCCCCN)c2ccccn2)cc1` are 8.06 and 9.77 nM. In the same order, the values of `CNCCN(Cc1ccc(OC)cc1)c1ccccn1` [2-[(2-METHYLAMINOETHYL)(P-METHOXYBENZYL)AMINO]PYRIDINE] are 8.12 and 6.61 nM.

The compound `COc1ccc(CN(CCN(C)CCCCCCNC(=O)CCCCCNc2ccc([N+](=O)[O-])c3nonc23)c2ccccn2)cc1` gave a negative-log KB (pKB) in test [1] of 9.05. Moreover, on Histamine H1 receptor, the Kb is 1.95 nM. In the same order, the values of `COc1ccc(CN(CCN(C)CCCCNC(=O)c2ccc(-c3c4ccc(=O)cc-4oc4cc(O)ccc34)c(C(=O)O)c2)c2ccccn2)cc1` are 8.47 and 4.47 nM.

For the compound `COc1ccc(CN(CCN(C)CCCCCCNC(=O)c2ccc(C(=O)O)c(-c3c4ccc(=O)cc-4oc4cc(O)ccc34)c2)c2ccccn2)cc1`, in test [1], the negative-log KB (pKB) was 8.4. The Kb on Histamine H1 receptor was 26.3 nM. `COc1ccc(CN(CCN(C)CCCCCCNC(=O)c2ccc(-c3c4ccc(=O)cc-4oc4cc(O)ccc34)c(C(=O)O)c2)c2ccccn2)cc1` had a pKB in test [1] of 8.17. Also, on Histamine H1 receptor, the Kb was 21.4 nM.
